Experimental data taken from patent US20060074073A1, “Therapeutic combinations comprising poly (ADP-ribose) polymerases inhibitor” (AGOURON PHARMACEUTICALS, INC., priority 2004, published 2006).

Assays:
[1] = IV pharmacokinetics in monkeys; details: cynomolgus monkey, in vivo
[2] = system: LoVo xenografts; test: Ex-vivo clonogenic assay of irradiated LoVo xenografts; assay type: in vivo
Experimental: 24 h later tumors were excised, disaggregated to obtain single cell suspensions and plated for colony forming assay. […] The SF for the 15 mg/kg and 30 mg/kg IR combinations equated to that which would have been achieved using radiation doses of 8 Gy or 9.5 Gy, giving dose modification factors (DMF) of 1.6 and 1.9 respectively.

[3] = 15 mg/kg single IV dose as glucuronate salt

Structure (SMILES): CNCc1ccc(-c2[nH]c3cc(F)cc4c3c2CCNC4=O)cc1 [compound of formula 1, 8-fluoro-2-{4-[(methylamino)methyl]phenyl}-1,3,4,5-tetrahydro-6H-azepino[5,4,3-cd]indol-6-one]
- AUC(0-inf) ([1]; 15 mg/kg single IV dose (free base) as glucuronate salt): 7400 ± 700 ng·h/mL
- clearance [1, 3]: 33.8 ± 3.1 mL/min/kg
- half-life [1, 3]: 5.2 ± 0.8 h
- Vd ([1]; 15 mg/kg single IV dose as glucuronate salt, read-out: Vss): 7.2 ± 1.2 L/kg
- DMF, dose modification factor ([2]; 15 mg/kg + 5 Gy): 1.6
- SF, surviving fraction ([2]; 15 mg/kg + 5 Gy): 0.06
- radiation dose that would give the same SF ([2]; 15 mg/kg + 5 Gy): 8 Gy
- DMF, dose modification factor ([2]; 30 mg/kg + 5 Gy): 1.9
- SF, surviving fraction ([2]; 30 mg/kg + 5 Gy): 0.03
- radiation dose that would give the same SF ([2]; 30 mg/kg + 5 Gy): 9.5 Gy
